{"source": "patent US20260274895A1", "about": "“DE NOVO DESIGNED MEMBRANE-TRAVERSING AND ORALLY BIOAVAILABLE MACROCYCLES” (UNIVERSITY OF WASHINGTON, priority 2022, published 2026)", "note": "Where a SMILES comes first, the peptide text is derived from it. [ ]: non-standard residue; d: D form. NMeF = CN[C@@H](Cc1ccccc1)C(=O)O; NMeI = CC[C@H](C)[C@H](NC)C(=O)O; dNMeF = CN[C@H](Cc1ccccc1)C(=O)O; NMeL = CN[C@@H](CC(C)C)C(=O)O; dNMeL = CN[C@H](CC(C)C)C(=O)O; NMeM = CN[C@@H](CCSC)C(=O)O; NMeV = CN[C@H](C(=O)O)C(C)C; NMeA = CN[C@@H](C)C(=O)O; Nle = CCCC[C@H](N)C(=O)O; dNMeA = CN[C@H](C)C(=O)O; Aib = CC(C)(N)C(=O)O"}
{"settings": "not given"}
{"smiles": "CC(C)C[C@@H]1C(=O)N[C@H](C(C)C)C(=O)N[C@H](C)C(=O)N2CCC[C@@H]2C(=O)N(C)[C@H](CC(C)C)C(=O)N[C@H](C(C)C)C(=O)N[C@H](C)C(=O)N2CCC[C@@H]2C(=O)N1C", "note": "[Design D8.31, ap*lvap*lv] (cyclo([dA][dP][dNMeL][dV][dA][dP][dNMeL][dV]))", "membrane permeability in PAMPA (in words)": "membrane permeable"}
{"smiles": "CC(C)C[C@@H]1NC(=O)[C@H]2CCCN2C(=O)[C@@H](CC(C)C)NC(=O)[C@@H](CC(C)C)NC(=O)[C@@H](CC(C)C)N(C)C(=O)[C@H](C(C)C)NC(=O)[C@@H](C)NC(=O)[C@@H](C)N(C)C(=O)[C@@H]2CCCN2C1=O", "note": "[Design D9.16, P*aaV*lllpL] (cyclo(LP[dNMeA][dA]V[dNMeL][dL][dL][dP]))", "membrane permeability in PAMPA (in words)": "significant permeability"}
{"settings": "PAMPA", "units": {"PAMPA_Papp_Avg (apparent permeability)": "×10⁻⁶ cm/s"}}
{"smiles": "CC[C@H](C)[C@@H]1NC(=O)[C@@H](CC(C)C)N(C)C(=O)[C@@H]2CCCN2C(=O)[C@H](C(C)C)NC(=O)C(C)(C)NC(=O)[C@H](CC(C)C)NC(=O)C(C)(C)NC(=O)[C@@H]2CCCN2C(=O)[C@H]2CCCN2C1=O", "note": "[Design D9.1, pPBLBVP*lI] (cyclo([Aib]L[Aib]VP[dNMeL]I[dP]P))", "PAMPA_Papp_Avg (apparent permeability)": 1.59}
{"smiles": "CC[C@@H](C)[C@H]1NC(=O)[C@H](CC(C)C)NC(=O)[C@@H](CC(C)C)NC(=O)[C@H](C(C)C)NC(=O)[C@@H](Cc2ccccc2)N(C)C(=O)[C@@H]2CCCN2C(=O)[C@@H](CC(C)C)NC(=O)[C@H](CC(C)C)N(C)C(=O)[C@H]2CCCN2C1=O", "note": "[Design D9.3, Lip*LlP*fVl] (cyclo(L[dI][dP][NMeL][dL]P[dNMeF]V[dL]))", "PAMPA_Papp_Avg (apparent permeability)": 2.33}
{"smiles": "CC[C@H](C)[C@@H]1NC(=O)[C@H](Cc2ccccc2)N(C)C(=O)[C@H](CC(C)C)N(C)C(=O)[C@@H](C(C)C)NC(=O)[C@@H](C)NC(=O)[C@@H]2CCCN2C(=O)[C@@H](CC(C)C)NC(=O)[C@@H]2CCCN2C(=O)[C@H](C)NC1=O", "note": "[Design D9.6, Pav*L*FIAPl] (cyclo(AP[dL]P[dA][dV][NMeL][NMeF]I))", "PAMPA_Papp_Avg (apparent permeability)": 1.63}
{"smiles": "CC(C)C[C@H]1NC(=O)[C@@H]2CCCN2C(=O)[C@@H](C(C)C)NC(=O)[C@@H](C)N(C)C(=O)[C@@H](C(C)C)NC(=O)[C@@H]2CCCN2C(=O)[C@@H](Cc2ccccc2)NC(=O)[C@H](CC(C)C)N(C)C(=O)[C@@H](C(C)C)NC1=O", "note": "[Design D9.9, Pv*avPlv*Lf] (cyclo([NMeL][dF]P[dV][dNMeA][dV]P[dL][dV]))", "PAMPA_Papp_Avg (apparent permeability)": 3.51}
{"smiles": "CC[C@H](C)[C@@H]1NC(=O)[C@@H](CC(C)C)N(C)C(=O)[C@H](CC(C)C)N(C)C(=O)[C@@H](C)N(C)C(=O)[C@@H](Cc2ccccc2)NC(=O)[C@H](C(C)C)NC(=O)[C@@H](C)NC(=O)[C@@H]2CCCN2C(=O)[C@H]2CCCN2C1=O", "note": "[Design D9.10, Vf*a*L*lIpPa] (cyclo([dA]V[dF][dNMeA][NMeL][dNMeL]I[dP]P))", "PAMPA_Papp_Avg (apparent permeability)": 0.826}
{"smiles": "CC[C@@H](C)[C@H]1NC(=O)[C@H]2CCCN2C(=O)[C@H]([C@@H](C)CC)NC(=O)[C@H](CC(C)C)N(C)C(=O)[C@H]2CCCN2C(=O)[C@@H]2CCCN2C(=O)[C@H](Cc2ccccc2)N(C)C(=O)[C@H](Cc2ccccc2)NC(=O)[C@H]([C@@H](C)CC)NC1=O", "note": "[Design D9.13, piIF*FPp*LI] (cyclo(F[NMeF]P[dP][NMeL]I[dP][dI]I))", "PAMPA_Papp_Avg (apparent permeability)": 3.37}
{"smiles": "CC(C)C[C@@H]1C(=O)N[C@H](C(C)C)C(=O)N(C)[C@@H](C(C)C)C(=O)N2CCC[C@H]2C(=O)N2CCC[C@@H]2C(=O)N[C@@H](C)C(=O)N(C)[C@@H](Cc2ccccc2)C(=O)N(C)[C@H](CC(C)C)C(=O)N[C@H](C)C(=O)N1C", "note": "[Design D9.17, pA*F*la*lv*VP] (cyclo(A[NMeF][dNMeL][dA][dNMeL][dV][NMeV]P[dP]))", "PAMPA_Papp_Avg (apparent permeability)": 1.74}
{"smiles": "CC(C)C[C@@H]1C(=O)N(C)[C@H](CC(C)C)C(=O)N2CCC[C@H]2C(=O)N[C@H](CC(C)C)C(=O)N2CCC[C@@H]2C(=O)N2CCC[C@@H]2C(=O)N(C)[C@H](CC(C)C)C(=O)N[C@H](Cc2ccccc2)C(=O)N[C@@H](C)C(=O)N1C", "note": "[Design D9.18, A*l*lPlpp*lf] (cyclo(A[dNMeL][dNMeL]P[dL][dP][dP][dNMeL][dF]))", "PAMPA_Papp_Avg (apparent permeability)": 1.76}
{"smiles": "CC(C)C[C@@H]1NC(=O)[C@@H](CC(C)C)NC(=O)[C@@H](CC(C)C)N(C)C(=O)[C@@H](CC(C)C)N(C)C(=O)[C@H](C(C)C)NC(=O)[C@@H](C)N(C)C(=O)[C@@H]2CCCN2C(=O)[C@@H]2CCCN2C(=O)[C@@H](C)N(C)C1=O", "note": "[Design D9.19, P*aV*l*llL*aP] (cyclo(L[dNMeA]PP[dNMeA]V[dNMeL][dNMeL][dL]))", "PAMPA_Papp_Avg (apparent permeability)": 1.28}
{"smiles": "CCCC[C@@H]1NC(=O)[C@H](C(C)C)NC(=O)[C@H]2CCCN2C(=O)[C@@H]2CCCN2C(=O)[C@H](C)NC(=O)[C@@H](C)N(C)C(=O)[C@@H](CC(C)C)N(C)C(=O)[C@@H](C(C)C)NC(=O)[C@@H]2CCCN2C1=O", "note": "[Design D9.21, APpVMPv*l*a] (cyclo(AP[dP]V[Nle]P[dV][dNMeL][dNMeA]))", "PAMPA_Papp_Avg (apparent permeability)": 0.294}
{"smiles": "CC(C)C[C@@H]1NC(=O)[C@@H]2CCCN2C(=O)[C@H]2CCCN2C(=O)[C@@H](C)N(C)C(=O)[C@@H](CC(C)C)N(C)C(=O)[C@H](C(C)C)NC(=O)[C@@H](C)N(C)C(=O)[C@H]2CCCN2C(=O)[C@@H]2CCCN2C1=O", "note": "[Design D9.22, p*aV*l*apPLP] (cyclo(LP[dP][dNMeA]V[dNMeL][dNMeA][dP]P))", "PAMPA_Papp_Avg (apparent permeability)": 0.189}
{"smiles": "CC[C@@H](C)[C@H]1NC(=O)[C@@H](CC(C)C)NC(=O)[C@@H]2CCCN2C(=O)[C@H]2CCCN2C(=O)[C@@H](C(C)C)NC(=O)[C@H](C)NC(=O)[C@@H]2CCCN2C(=O)[C@@H]([C@H](C)CC)NC(=O)[C@@H](C)N(C)C1=O", "note": "[Design D9.23, i*aiPAVpPl] (cyclo([dL][dI][dNMeA][dI]PA[dV][dP]P))", "PAMPA_Papp_Avg (apparent permeability)": 0.141}
{"smiles": "CSCC[C@H]1C(=O)N(C)[C@H](C)C(=O)N[C@H](CC(C)C)C(=O)N2CCC[C@@H]2C(=O)N2CCC[C@H]2C(=O)N[C@@H](CC(C)C)C(=O)N2CCC[C@H]2C(=O)N2CCC[C@@H]2C(=O)N[C@H](C(C)C)C(=O)N1C", "note": "[Design D9.24, pv*M*alpPLP] (cyclo(LP[dP][dV][NMeM][dNMeA][dL][dP]P))", "PAMPA_Papp_Avg (apparent permeability)": 0.0869}
{"smiles": "CC(C)C[C@@H]1NC(=O)[C@H](Cc2ccccc2)N(C)C(=O)[C@H]2CCCN2C(=O)[C@@H](CC(C)C)NC(=O)[C@@H](CC(C)C)NC(=O)[C@H](C)NC(=O)[C@H]2CCCN2C(=O)[C@@H]2CCCN2C(=O)[C@@H](C(C)C)NC1=O", "note": "[Design D9.32, pAllp*FLvP] (cyclo(A[dL][dL][dP][NMeF]L[dV]P[dP]))", "PAMPA_Papp_Avg (apparent permeability)": 0.24}
{"smiles": "CC[C@H](C)[C@@H]1NC(=O)CNC(=O)[C@@H]2CCCN2C(=O)[C@H]2CCCN2C(=O)[C@H]([C@@H](C)CC)NC(=O)[C@@H](C)N(C)C(=O)[C@@H]2CCCN2C(=O)[C@H](C(C)C)NC(=O)[C@@H](CC(C)C)NC1=O", "note": "[Design D9.33, pPGIlVP*aI] (cyclo(GI[dL]VP[dNMeA]I[dP]P))", "PAMPA_Papp_Avg (apparent permeability)": 0.317}
{"smiles": "CCCC[C@@H]1NC(=O)[C@H]2CCCN2C(=O)[C@H](C(C)C)NC(=O)[C@@H](CC(C)C)N(C)C(=O)[C@H](Cc2ccccc2)NC(=O)[C@H](CC(C)C)NC(=O)[C@@H](CC(C)C)N(C)C(=O)[C@@H]2CCCN2C(=O)[C@@H](CC(C)C)NC1=O", "note": "[Design D9.40, pMlP*lLF*lV] (cyclo(F[dNMeL]V[dP][Nle][dL]P[dNMeL]L))", "PAMPA_Papp_Avg (apparent permeability)": 0.238}
{"smiles": "CC[C@H](C)[C@@H]1NC(=O)[C@H]2CCCN2C(=O)[C@@H]2CCCN2C(=O)[C@H](C(C)C)NC(=O)[C@@H](C(C)C)NC(=O)[C@H](Cc2ccccc2)N(C)C(=O)[C@H]2CCCN2C(=O)[C@@H](CC(C)C)N(C)C(=O)[C@@H](CC(C)C)NC1=O", "note": "[Design D9.42, pIl*lp*FvVP] (cyclo(I[dL][dNMeL][dP][NMeF][dV]VP[dP]))", "PAMPA_Papp_Avg (apparent permeability)": 1.12}
{"smiles": "CC(C)C[C@@H]1NC(=O)[C@@H](CC(C)C)NC(=O)[C@@H]2CCCN2C(=O)[C@@H](CC(C)C)NC(=O)[C@H](C)N(C)C(=O)[C@H](C)NC(=O)[C@H](CC(C)C)N(C)C(=O)[C@@H]2CCCN2C(=O)[C@H](CC(C)C)NC(=O)[C@H](CC(C)C)N(C)C1=O", "note": "[Design D10.16, lL*LLP*LA*AlP] (cyclo(A[NMeA][dL]P[dL]L[NMeL]LP[NMeL]))", "PAMPA_Papp_Avg (apparent permeability)": 2.27}
{"smiles": "CC[C@H](C)[C@H]1C(=O)N[C@H](C)C(=O)N[C@@H](CC(C)C)C(=O)N[C@@H](C(C)C)C(=O)N2CCC[C@@H]2C(=O)N(C)[C@@H](CC(C)C)C(=O)N[C@@H](C(C)C)C(=O)N2CCC[C@H]2C(=O)N(C)[C@H](CC(C)C)C(=O)N[C@@H](C(C)C)C(=O)N1C", "note": "[Design D10.19, aLVp*LVP*lV*I] (cyclo(LV[dP][NMeL]VP[dNMeL]V[NMeI][dA]))", "PAMPA_Papp_Avg (apparent permeability)": 6.36}
{"smiles": "CC(C)C[C@@H]1NC(=O)[C@@H](Cc2ccccc2)NC(=O)[C@@H](CC(C)C)N(C)C(=O)[C@@H]2CCCN2C(=O)[C@H](C)NC(=O)[C@@H](CC(C)C)N(C)C(=O)[C@@H]2CCCN2C(=O)[C@H](CC(C)C)N(C)C(=O)[C@H](CC(C)C)N(C)C(=O)[C@H](C(C)C)NC1=O", "note": "[Design D10.20, P*lAP*lfLV*L*L] (cyclo(AP[dNMeL][dF]LV[NMeL][NMeL]P[dNMeL]))", "PAMPA_Papp_Avg (apparent permeability)": 2.59}
{"smiles": "CC(C)[C@@H]1NC(=O)[C@H]2CCCN2C(=O)[C@@H](C(C)C)NC(=O)[C@@H]2CCCN2C(=O)[C@H](Cc2ccccc2)NC(=O)[C@H](Cc2ccccc2)NC(=O)[C@H]2CCCN2C(=O)[C@@H](C(C)C)NC(=O)[C@@H]2CCCN2C(=O)[C@H](C(C)C)NC1=O", "note": "[Design D10.27, PvpVVPvpFF] (cyclo(FFP[dV][dP]VVP[dV][dP]))", "PAMPA_Papp_Avg (apparent permeability)": 0.49}
{"smiles": "CC(C)C[C@@H]1C(=O)N[C@@H](C)C(=O)N[C@H](CC(C)C)C(=O)N(C)[C@@H](C)C(=O)N2CCC[C@@H]2C(=O)N2CCC[C@@H]2C(=O)N2CCC[C@@H]2C(=O)N2CCC[C@H]2C(=O)N[C@H](C(C)C)C(=O)N(C)[C@@H](CC(C)C)C(=O)N1C", "note": "[Design D10.28, l*ApppPv*L*lA] (cyclo([dV][NMeL][dNMeL]A[dL][NMeA][dP][dP][dP]P))", "PAMPA_Papp_Avg (apparent permeability)": 0.184}
